Values quoted from earlier work as cited in patent US7217714B1, “CCR5 modulators” (Agouron Pharmaceuticals, Inc., priority 1998, dated 2007).

What was measured:
[1] = system: CXCR4 dependent primary and lab-adapted HIV viruses; details: susceptible cultures
[2] = system: CCR5-tropic strains; details: Baba et al. PNAS 1999
[3] = system: primary HIV isolates

Molecule	suppression of replication of primary HIV isolates [3]	also measured
c1cc(CN2CCCNCCNCCCNCC2)ccc1CN1CCCNCCNCCCNCC1 [AMD3100]	–	inhibition of infection by CXCR4 dependent HIV [1]: inhibit infection
Cc1ccc(-c2ccc3c(c2)C=C(C(=O)Nc2ccc(C[N+](C)(C)C4CCOCC4)cc2)CCC3)cc1.[Cl-] [TAK 779]	–	block of entry of CCR5-tropic strains [2]: blocks entry
SDF-1: "the chemokines RANTES, MIP-1α, MIP-1β, SDF-1 have been shown to suppress replication of primary HIV isolates"	suppress replication	–
RANTES: "a protein which is regulated upon activation and is normal T-cell expressed and secreted (RANTES)" (protein, UniProt P13501 24-91, looked up) C-C motif chemokine 5: SPYSSDTTPCCFAYIARPLPRAHIKEYFYTSGKCSNPAVVFVTRKNRQVCANPEKKWVREYINSLEMS	suppress replication	–
MIP-1α: "the macrophage inflammatory proteins (MIP) designated MIP-1α and MIP-1β" (protein, UniProt P10147 24-92, looked up) C-C motif chemokine 3: SLAADTPTACCFSYTSRQIPQNFIADYFETSSQCSKPGVIFLTKRSRQVCADPSEEWVQKYVSDLELSA	suppress replication	–
MIP-1β: "the macrophage inflammatory proteins (MIP) designated MIP-1α and MIP-1β" (protein, UniProt P13236 24-92, looked up) C-C motif chemokine 4: APMGSDPPTACCFSYTARKLPRNFVVDYYETSSLCSQPAVVFQTKRSKQVCADPSESWVQEYVYDLELN	suppress replication	–
